Test results as given in patent US20250099448A1, “HETEROCYCLIC COMPOUNDS” (Hoffmann-La Roche Inc., priority 2022, published 2025).

These compounds were tested against T1, MAGL protein (Homo sapiens, UniProt Q99685) (assay: 2-AG assay: MAGL inhibitory activity by hydrolysis of 2-arachidonoylglycerol to arachidonic acid, followed by mass spectrometry). Conditions: 8 μM 2-arachidonoylglycerol, 15 min preincubation, 30 min reaction at RT, RapidFire MS readout.
T1 sequence (Q99685 1-303): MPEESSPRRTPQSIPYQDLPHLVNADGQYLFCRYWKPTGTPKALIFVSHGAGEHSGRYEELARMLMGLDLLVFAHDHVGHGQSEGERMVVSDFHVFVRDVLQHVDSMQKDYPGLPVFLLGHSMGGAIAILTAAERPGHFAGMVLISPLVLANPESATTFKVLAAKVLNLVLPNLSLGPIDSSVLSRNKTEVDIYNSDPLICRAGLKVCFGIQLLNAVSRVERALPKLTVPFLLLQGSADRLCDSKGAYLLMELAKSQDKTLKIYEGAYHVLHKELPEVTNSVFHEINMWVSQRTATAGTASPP
Type: biochemical
In short: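 Activity was measured by RapidFire SPE–triple-quad MS as the ratio of arachidonic acid to d8-arachidonic acid after 2-AG hydrolysis (8 μM substrate, 30 min, RT, acetonitrile quench). Compounds, tested from 12.5 μM down to […], were first preincubated 15 min with MAGL in TRIS/EDTA/Tween-20 buffer containing 2.5% DMSO.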

SMILES	IC50 [nM]
O=C(N1CC(COc2ccc(F)cc2Cl)C1)N1CC2(CC(c3nnc(C4CC4)[nH]3)C2)C1 [compound 353]	5.12
O=C(N1CC(Cc2ccc(Cl)cc2)C1)N1CC2(CC(c3nnc(C4(O)CC4)[nH]3)C2)C1 [compound 361]	45.6
NC(=O)C(c1ccc(F)cc1)C1CCN(C(=O)N2CC3(CC(c4nnc(C5CC5)[nH]4)C3)C2)CC1 (stereo not shown) [compound 362]	106
O=C(N1C[C@H]2CN(Cc3ccccc3)C[C@H]2C1)N1CC2(CC(c3nnc(C4CC4)[nH]3)C2)C1 [compound 363]	244
CC(C)(C)n1nnc(C2(c3ccc(C4CN(C(=O)N5CC6(CC(c7nnc(C8CC8)[nH]7)C6)C5)C4)cc3)CC2)n1 [compound 365]	0.06
CC(C)(Oc1ccc(C2CN(C(=O)N3CC4(CC(c5nnc(C6CC6)[nH]5)C4)C3)C2)cc1)C(F)(F)F [compound 366]	0.08
O=C(N1CC(c2ccc(Oc3ccccc3Cl)nc2)C1)N1CC2(CC(c3nnc(C4CC4)[nH]3)C2)C1 [compound 367]	0.15
CC(C)(Oc1ccc(C2CN(C(=O)N3CC4(CC(c5nnc(C6(O)CC6)[nH]5)C4)C3)C2)cc1)C(F)(F)F [compound 368]	0.17
O=C(N1CC(c2ccc(S(=O)(=O)c3ccccc3)cc2)C1)N1CC2(CC(c3nnc(C4CC4)[nH]3)C2)C1 [compound 371]	0.4
COC(=O)C1(c2ccc(C3CN(C(=O)N4CC5(CC(c6nnc(C7CC7)[nH]6)C5)C4)C3)cc2)CC1 [compound 372]	0.57
O=C(N1CC(c2ccc(Oc3ccccc3Cl)nc2)C1)N1CC2(CC(c3nnc(C4(O)CC4)[nH]3)C2)C1 [compound 374]	1.61
O=C(N1CC(c2ccc(OCC3(C(F)(F)F)CC3)cc2)C1)N1CC2(CC(c3nnc(C4(O)CC4)[nH]3)C2)C1 [compound 375]	1.89
N#CC1(c2ccc(C3CN(C(=O)N4CC5(CC(c6nnc(C7CC7)[nH]6)C5)C4)C3)cc2)CC1 [compound 376]	2.22
O=C(N1CC(c2ccc(-c3nnc(C4(C(F)(F)F)CC4)[nH]3)cc2)C1)N1CC2(CC(c3nc(C4CC4)n[nH]3)C2)C1 [compound 377]	4.29
O=C(N1CC(c2ccc(Oc3ccccc3Cl)nn2)C1)N1CC2(CC(c3nnc(C4CC4)[nH]3)C2)C1 [compound 378]	16.6
O=C(N1CC(c2ccc(C3(c4nnn[nH]4)CC3)cc2)C1)N1CC2(CC(c3nnc(C4CC4)[nH]3)C2)C1 [compound 379]	61
NS(=O)(=O)c1ccc(C2CN(C(=O)N3CC4(CC(c5nnc(C6CC6)[nH]5)C4)C3)C2)cc1 [compound 380]	64.2
CP(C)(=O)Cc1ccc(C2CN(C(=O)N3CC4(CC(c5nnc(C6CC6)[nH]5)C4)C3)C2)cc1 [compound 381]	0.69
CC(C)c1ccc(N(C)c2ccc(C3CN(C(=O)N4CC5(CC(c6nnc(C7CC7)[nH]6)C5)C4)C3)cn2)cc1 [compound 382]	21.4
CN(c1ccccc1)c1ccc(C2CN(C(=O)N3CC4(CC(c5nnc(C6CC6)[nH]5)C4)C3)C2)cn1 [compound 383]	2.09
NC(=O)C1CCCCN1c1ccc(C2CN(C(=O)N3CC4(CC(c5nnc(C6CC6)[nH]5)C4)C3)C2)cc1 (stereo not shown) [compound 384]	2.64
NC(=O)C1CC(F)(F)CCN1c1ccc(C2CN(C(=O)N3CC4(CC(c5nnc(C6CC6)[nH]5)C4)C3)C2)cc1 (stereo not shown) [compound 385]	3.76

SMILES	IC50 [nM]
NC(=O)C1CCCN1c1ccc(C2CN(C(=O)N3CC4(CC(c5nnc(C6CC6)[nH]5)C4)C3)C2)cc1 (stereo not shown) [compound 386]	246
CC(C)(C)c1ccc(C2CN(C(=O)N3CC4(CC(c5nc(C6CC6)n[nH]5)C4)C3)C2)cn1 [compound 399]	2.63
O=C(N1CC2(CC(Cc3cc(C(F)(F)F)ncn3)C2)C1)N1CC2(CC(c3nc(C4CC4)n[nH]3)C2)C1 [compound 400]	1.17
O=C(N1CC2(CC(Cc3cnn(C(F)(F)F)c3)C2)C1)N1CC2(CC(c3nc(C4CC4)n[nH]3)C2)C1 [compound 401]	0.4
O=C(N1CC2(CC(Cc3ccnc(C(F)(F)F)n3)C2)C1)N1CC2(CC(c3nc(C4CC4)n[nH]3)C2)C1 [compound 402]	0.95
O=C(N1CC2(CC(c3nc(C4CC4)n[nH]3)C2)C1)N1CC2(CC(c3nc(C4CC4)n[nH]3)C2)C1 [compound 407]	9.24
Cc1cc(C(F)(F)F)nn1-c1ccc(C2CN(C(=O)N3CC4(CC(c5nnc(C6(O)CC6)[nH]5)C4)C3)C2)cc1 [compound 408]	1.46
CC(C)(C)c1ncc(CN2CC3(C2)CN(C(=O)N2CC4(CC(c5nc(C6CC6)n[nH]5)C4)C2)C3)s1 [compound 415]	4.43
O=C(N1CC2(CC(Cn3cc(C(F)(F)F)ccc3=O)C2)C1)N1CC2(CC(c3nc(C4(O)CC4)n[nH]3)C2)C1 [compound 417]	6.2
O=C(N1CCC(C23CC(c4nnc(C5(C(F)(F)F)CC5)o4)(C2)C3)CC1)N1CC2(CC(c3nc(C4CC4)n[nH]3)C2)C1 [compound 418]	192
O=C(N1CC(C23CC(c4ccc(S(=O)(=O)C(F)(F)F)cc4)(C2)C3)C1)N1CC2(CC(c3nc(C4(O)CC4)n[nH]3)C2)C1 [compound 419]	0.5
O=C(N1CC2(CC(Cc3ccc(S(=O)(=O)C(F)(F)F)cc3)C2)C1)N1CC2(CC(c3nc(C4CC4)n[nH]3)C2)C1 [compound 420]	0.02
O=C(N1CC2(CCC(S(=O)(=O)c3cccc(C(F)(F)F)c3)CC2)C1)N1CC2(CC(c3nc(C4(O)CC4)n[nH]3)C2)C1 [compound 421]	50.4
O=C(N1CC(C23CC(c4nnc(C5(C(F)(F)F)CC5)o4)(C2)C3)C1)N1CC2(CC(c3nc(C4CC4)n[nH]3)C2)C1 [compound 422]	14.3
O=C(N1CC2(CC(Oc3nc(C(F)(F)F)cs3)C2)C1)N1CC2(CC(c3nc(C4CC4)n[nH]3)C2)C1 [compound 423]	1.11
O=C(N1CC2(CC(Cc3cnc(C(F)(F)F)cn3)C2)C1)N1CC2(CC(c3nc(C4(F)CC4)n[nH]3)C2)C1 [compound 424]	0.46
O=C(N1CC2(CC(c3nc(C4CC4)n[nH]3)C2)C1)N1CC2(CN(Cc3ccn(CC(F)(F)F)c(=O)c3)C2)C1 [compound 426]	274
O=C(N1CC2(CC(c3nc(C4(F)CC4)n[nH]3)C2)C1)N1CC2(CN(Cc3ccc(S(=O)(=O)C(F)(F)F)cc3)C2)C1 [compound 427]	1.33
O=C(N1CC2(CC(c3nc(C4CC4)n[nH]3)C2)C1)N1CC2(CN(Cc3nc(C(F)(F)F)cs3)C2)C1 [compound 430]	5.22
O=C(N1CC(c2cnc(OCC3(C(F)(F)F)CC3)cn2)C1)N1CC2(CC(c3nc(C4(F)CC4)n[nH]3)C2)C1 [compound 431]	0.39
O=C(N1CC2(CCN(Cc3cc(C(F)(F)F)sn3)CC2)C1)N1CC2(CC(c3nc(C4CC4)n[nH]3)C2)C1 [compound 432]	3.45

Now from value to compound:

IC50 [nM]	SMILES
3.94	O=C(N1CC2(CC(CNCC3(C(F)(F)F)CC3)C2)C1)N1CC2(CC(c3nnc(C4CC4)[nH]3)C2)C1 [compound 352]
5.39	O=C(N1CC2(CC(CNC3(C(F)(F)F)COC3)C2)C1)N1CC2(CC(c3nnc(C4CC4)[nH]3)C2)C1 [compound 354]
8.86	CS(=O)(=O)c1cc(F)ccc1OC1CCC2(CC1)CN(C(=O)N1CC3(CC(c4nnc(C5CC5)[nH]4)C3)C1)C2 [compound 355]
11.7	O=C(N1CC2(CC(c3nnc(C4CC4)[nH]3)C2)C1)N1CC2(CC(S(=O)(=O)c3ccc(F)cc3Cl)C2)C1 [compound 356]
25.6	CC1(NCC2CC3(C2)CN(C(=O)N2CC4(CC(c5nnc(C6CC6)[nH]5)C4)C2)C3)CS(=O)(=O)C1 [compound 357]
26.3	O=C(N1CC2(CCC(NS(=O)(=O)C3CCC(F)(F)CC3)CC2)C1)N1CC2(CC(c3nnc(C4CC4)[nH]3)C2)C1 [compound 358]
28.4	O=C(NCC1(C(F)(F)F)CC1)C1CC2(C1)CN(C(=O)N1CC3(CC(c4nnc(C5CC5)[nH]4)C3)C1)C2 [compound 359]
32	O=C(N1CC(C2CN(Cc3ccc(C(F)(F)F)cc3)C2)C1)N1CC2(CC(c3nnc(C4CC4)[nH]3)C2)C1 [compound 360]
377	O=C(N1CC2(CC(CNC3CS(=O)(=O)C3)C2)C1)N1CC2(CC(c3nnc(C4CC4)[nH]3)C2)C1 [compound 364]
0.75	O=C(N1CC2(CC(Cc3nccc(C(F)(F)F)n3)C2)C1)N1CC2(CC(c3nc(C4CC4)n[nH]3)C2)C1 [compound 403]
0.29	O=C(N1CC2(CC(Cc3cc(C(F)(F)F)n[nH]3)C2)C1)N1CC2(CC(c3nc(C4CC4)n[nH]3)C2)C1 [compound 404]
0.57	O=C(N1CC2(CC(Cc3cn(C4CC4)nc3C(F)(F)F)C2)C1)N1CC2(CC(c3nc(C4CC4)n[nH]3)C2)C1 [compound 405]
1.75	O=C(N1CC2(CC(Cn3cc(C(F)(F)F)ccc3=O)C2)C1)N1CC2(CC(c3nc(C4CC4)n[nH]3)C2)C1 [compound 406]
0.14	O=C(N1CC2(CC(Cn3nccc3C(F)(F)F)C2)C1)N1CC2(CC(c3nc(C4CC4)n[nH]3)C2)C1 [compound 410]
0.34	O=C(N1CC2(CC(c3ccc(S(=O)(=O)C(F)(F)F)cc3)C2)C1)N1CC2(CC(c3nnc(C4CC4)[nH]3)C2)C1 [compound 413]
2.22	Cn1cc(OC2CC3(C2)CN(C(=O)N2CC4(CC(c5nc(C6CC6)n[nH]5)C4)C2)C3)c(C(F)(F)F)n1 [compound 425]
0.31	Cc1cc(C(F)(F)F)n(CC2CC3(C2)CN(C(=O)N2CC4(CC(c5nc(C6CC6)n[nH]5)C4)C2)C3)n1 [compound 428]
0.9	N#Cc1cc(C(F)(F)F)ncc1CC1CC2(C1)CN(C(=O)N1CC3(CC(c4nnc(C5(O)CC5)[nH]4)C3)C1)C2 [compound 433]
